Source: patent publication US20060008512A1, “Composition and methods for improved animal performance” (priority 2004, published 2006)
Where two headings read alike, the source gives them in different places.

Legend:
fine-wool Merino wethers = conditions: 60 mg thyroxine implants in summer and autumn; cited from earlier work
[1] = system: growing cockerel and pullet chickens; conditions: 10 mg/kg dietary thyroid hormone; cited from earlier work
[2] = system: Hy-Line W-36 White Leghorn hens
Method: Experiment 1. […] While acknowledging that injecting individual hens is commercially impractical (Webster, 2003), nevertheless an initial study was needed to establish the efficacy of T4 when it is delivered directly into the hens in precisely measured doses. The photoperiod was 17 hours of light per day (0330 hours to 2030 hours).

In the case of `N[C@@H](Cc1cc(I)c(Oc2cc(I)c(O)c(I)c2)c(I)c1)C(=O)O` [L-thyroxine, 3,5,3′,5′-tetraiodo-L-thyronine], the “Increase in annual fleece weight” value (fine-wool Merino wethers) is given as 34%, the “Reduction in body weight gain compared to controls” value [1] is given as 28.18% and the Egg production ([2]; 250 μg T4 per kg body weight for 12 consecutive days) is given as “did not reduce egg production significantly”. For the same compound, the “Onset of molt in all cages after the start of T4 injection” value ([2]; 500 μg T4 Group) was 11 days, the “Day of T4 injection by which egg production ceased entirely” value ([2]; 1,000 μg T4 Group) was at most 8 days and the “Onset of molt in all cages after the start of T4 injection” value ([2]; 1,000 μg T4 Group) was 9 days. For the same compound, the Mortality ([2]; 1,000 μg T4 Group, 2 of 8 hens, 9th and 10th day after start of injection) was 25%, the “Time to complete cessation of egg production” value ([2]; 2,000 μg T4 per kg body weight for 3 consecutive days) was at most 6 days and the Mortality ([2]; 4,000 μg T4 Group, 1 of 4 hens, 8th day after start of injection) was 25%. For the same compound, the “Time to complete cessation of egg production” value ([2]; 4,000 μg T4 per kg body weight for 3 consecutive days) was at most 4 days, the “End of Injections Body Weight” value ([2]; 250 mcg/kg body wt i.m. 12 d) was 1300 g and the “Initial Body Weight” value ([2]; 250 mcg/kg body wt i.m. 12 d) was 1495 g. It also gave a Hen-day egg production ([2]; 250 mcg/kg body wt i.m. 12 d from day 15, day 14) of 93.8%, a Hen-day egg production ([2]; 250 mcg/kg body wt i.m. 12 d from day 15, day 16) of 87.5% and a Hen-day egg production ([2]; 250 mcg/kg body wt i.m. 12 d from day 15, day 18) of 68.8%. The Hen-day egg production ([2]; 250 mcg/kg body wt i.m. 12 d from day 15, day 20) was 56.3%, the Hen-day egg production ([2]; 250 mcg/kg body wt i.m. 12 d from day 15, day 22) was 25.0% and the Hen-day egg production ([2]; 250 mcg/kg body wt i.m. 12 d from day 15, day 24) was 31.3%. The Hen-day egg production ([2]; 250 mcg/kg body wt i.m. 12 d from day 15, day 26) was 37.5%, the Hen-day egg production ([2]; 250 mcg/kg body wt i.m. 12 d from day 15, day 28) was 31.3% and the Hen-day egg production ([2]; 250 mcg/kg body wt i.m. 12 d from day 15, day 30) was 37.5%. For the same compound, the “Time after start of injecting until egg production significantly reduced” value ([2]; 500 and 1,000 μg T4 Groups) was 4 days, the “End of Injections Body Weight” value ([2]; 500 mcg/kg body wt i.m. 8 d) was 1299 g and the “Initial Body Weight” value ([2]; 500 mcg/kg body wt i.m. 8 d) was 1472 g. The Hen-day egg production ([2]; 500 mcg/kg body wt i.m. 8 d from day 15, day 14) was 87.5%, the Hen-day egg production ([2]; 500 mcg/kg body wt i.m. 8 d from day 15, day 16) was 93.8% and the Hen-day egg production ([2]; 500 mcg/kg body wt i.m. 8 d from day 15, day 18) was 31.3%. It also gave a Hen-day egg production ([2]; 500 mcg/kg body wt i.m. 8 d from day 15, day 20) of 31.3%, a Hen-day egg production ([2]; 500 mcg/kg body wt i.m. 8 d from day 15, day 22) of 6.3% and a Hen-day egg production ([2]; 500 mcg/kg body wt i.m. 8 d from day 15, day 24) of 6.3%. For the same compound, the Hen-day egg production ([2]; 500 mcg/kg body wt i.m. 8 d from day 15, day 26) was 6.3%, the Hen-day egg production ([2]; 500 mcg/kg body wt i.m. 8 d from day 15, day 28) was 6.3% and the Hen-day egg production ([2]; 500 mcg/kg body wt i.m. 8 d from day 15, day 30) was 25.0%. The “Size of regressed reproductive tracts at necropsy” value ([2]; 1,000 and 4,000 μg T4 Groups) was at most 50 % normal size, the “End of Injections Body Weight” value ([2]; 1,000 mcg/kg body wt i.m. 8 d) was 1167 g and the “Initial Body Weight” value ([2]; 1,000 mcg/kg body wt i.m. 8 d) was 1513 g. The Hen-day egg production ([2]; 1,000 mcg/kg body wt i.m. 8 d from day 15, day 14) was 81.3%, the Hen-day egg production ([2]; 1,000 mcg/kg body wt i.m. 8 d from day 15, day 16) was 68.8% and the Hen-day egg production ([2]; 1,000 mcg/kg body wt i.m. 8 d from day 15, day 18) was 31.3%. For the same compound, the Hen-day egg production ([2]; 1,000 mcg/kg body wt i.m. 8 d from day 15, day 20) was 12.5%, the Hen-day egg production ([2]; 1,000 mcg/kg body wt i.m. 8 d from day 15, day 22) was 0.0% and the Hen-day egg production ([2]; 1,000 mcg/kg body wt i.m. 8 d from day 15, day 24) was 0.0%. For the same compound, the Hen-day egg production ([2]; 1,000 mcg/kg body wt i.m. 8 d from day 15, day 26) was 0.0%, the Hen-day egg production ([2]; 1,000 mcg/kg body wt i.m. 8 d from day 15, day 28) was 0.0% and the Hen-day egg production ([2]; 1,000 mcg/kg body wt i.m. 8 d from day 15, day 30) was 0.0%. The “Onset of molt in all cages after the start of injection” value ([2]; 2,000 and 4,000 μg T4 Groups) was 9 days, the “End of Injections Body Weight” value ([2]; 2,000 mcg/kg body wt i.m. 3 d) was 1234 g and the “Initial Body Weight” value ([2]; 2,000 mcg/kg body wt i.m. 3 d) was 1510 g. It also gave a Hen-day egg production ([2]; 2,000 mcg/kg body wt i.m. 3 d from day 15, day 14) of 62.5%, a Hen-day egg production ([2]; 2,000 mcg/kg body wt i.m. 3 d from day 15, day 16) of 87.5% and a Hen-day egg production ([2]; 2,000 mcg/kg body wt i.m. 3 d from day 15, day 18) of 87.5%. The Hen-day egg production ([2]; 2,000 mcg/kg body wt i.m. 3 d from day 15, day 20) was 75.0%, the Hen-day egg production ([2]; 2,000 mcg/kg body wt i.m. 3 d from day 15, day 22) was 50.0% and the Hen-day egg production ([2]; 2,000 mcg/kg body wt i.m. 3 d from day 15, day 24) was 12.5%. For the same compound, the Hen-day egg production ([2]; 2,000 mcg/kg body wt i.m. 3 d from day 15, day 26) was 0.0%, the Hen-day egg production ([2]; 2,000 mcg/kg body wt i.m. 3 d from day 15, day 28) was 0.0% and the Hen-day egg production ([2]; 2,000 mcg/kg body wt i.m. 3 d from day 15, day 30) was 0.0%. The “End of Injections Body Weight” value ([2]; 4,000 mcg/kg body wt i.m. 3 d) was 1165 g, the “Initial Body Weight” value ([2]; 4,000 mcg/kg body wt i.m. 3 d) was 1387 g and the Hen-day egg production ([2]; 4,000 mcg/kg body wt i.m. 3 d from day 15, day 14) was 62.5%.
